According to patent US10351560B2, “Crystalline forms” (IDORSIA PHARMACEUTICALS LTD, priority 2015, dated 2019):

Columns and labels:
[1] = Gravimetric vapour sorption (GVS) analysis; format: physicochemical; conditions: 25° C., mass change between 20% and 80% RH in first adsorption scan; mass change larger then 0.2% and smaller then 2%
Procedure: Gravimetric Vapour Sorption (GVS) Analysis
Measurements were performed on a multi sample instrument SPS-100n (Projekt Messtechnik, Ulm, Germany) operated in stepping mode at 25° C. The sample was allowed to equilibrate at 40% RH before starting a pre-defined humidity program (40-0-95-0-95-40% RH, steps of 5% ΔRH and with a maximal equilibration time of 24 hours per step were applied. About 20 to 30 mg of each sample was used. The hygroscopic classification is done according to the European Pharmacopeia Technical Guide (1999, page 86), e.g., slightly hygroscopic: increase in mass is less than 2% and equal to or greater than 0.2% mass/mass; hygroscopic: increase in mass is less than 15% and equal to or greater than 2% mass/mass. The mass change between 20% relative humidity and 80% relative humidity in the first adsorption scan is considered.

[2] = tested on: primary cultured rat hepatocytes; test: In vitro cytotoxicity in primary cultured rat hepatocytes; format: cell-based; conditions: for NoEC (no effect concentration) / LCC (lowest cytotoxic concentration): 24 h treatment, highest test concentration 300 μM; for NoEC (no effect concentration): morphology and LDH leakage; for LCC (lowest cytotoxic concentration): morphology grading ≥2 or ≥2-fold increase in LDH leakage
Excerpt: In Vitro Cytotoxicity in Primary Cultured Rat Hepatocytes
Adult male Wistar rats were narcotized with sodium pentobarbital and hepatocytes were isolated according to a standard procedure, i.e. by in situ perfusion of the liver with a collagenase solution. The viability of the purified hepatocytes, checked by the trypan blue dye exclusion method was greater than 85%. The isolated hepatocytes were resuspended in standard Williams Medium E, without phenol red, supplemented (WME supp.) with transferrin (100 μg/ml), triiodothyronine (10 μg/ml), gentamicin (50 μg/ml), hydrocortison hemisuccinate (13.36 μg/ml), glucagon (5 μg/ml), HEPES (10 mM), inosin (10 μg/ml), insulin (10 μg/ml), streptomycin (100 μg/ml) and penicillin (100 U/ml) and 10% fetal bovine serum (FBS). The cells were plated in collagen-coated 24-well plates at an initial density of 2×10^5 cells/well. After 4 h for attachment to the culture-plates, the medium was aspirated and replaced by fresh WME supp. without FBS containing the test compounds and incubated for 24 h at 37° C. in a […] and 5% CO2 atmosphere. For each experiment, i.e., with each batch of hepatocytes, treatments with the test compounds were done in quadriplicate. Quadriplicate controls (treatment with the vehicle only) were also present on each culture plate.
Stock solutions of the test compounds were prepared in DMSO a few hours before treatment start. Appropriate dilutions of these stock solutions were added to the culture media just prior to the treatment in order to give final concentrations of 0, 3, 10, 30, 100 and 300 μM. The final concentration of the vehicle DMSO was 1% (v/v).
The morphology of the hepatocyte monolayers was monitored by light microscopy after 24 hours of exposure to the test compounds. Treatment related effects are described according to the following grading: • 0 No morphological alterations observed upon treatment when compared to the control cultures • 1-3 Treatment resulting in any morphological changes, e.g. intracellular granulation, vacuolization or cell death. Depending on the severity, these changes were regarded as slight (1), moderate (2) or strong (3). • K Treatment resulting in 100% dead cells and/or the complete detachment of the monolayer yielding a clear cell-free dish.
After 24 h treatment of the hepatocyte cultures, aliquots of culture medium were carefully collected and used for the analysis of lactate dehydrogenase (LDH) activity by spectrophotometry using the LDH cytotoxicity detection kit from Clontech (cat No. 630117, Mountain View, Calif., USA). For each experiment, additional cultures were used for the determination of total intracellular LDH activity at treatment start. For this purpose, 4 wells of cell culture per experiment were washed with cold saline before treatment start, sonicated in fresh medium and the homogenate was analyzed for total LDH activity. Enzyme activities in the culture media were assessed and expressed as percentage of the total activity present in the cultured hepatocytes at the beginning of the treatments.
The lowest cytotoxic concentration (LCC) and the no effect concentration (NoEC) are given for each compound, based on cell morphology and LDH leakage after 24 h treatment. LCC is defined as the lowest concentration of the test compound leading to a clear effect on the cultured rat hepatocytes (morphology grading ≥2 or ≥2-fold increase in LDH leakage). […]

[3] = tested on: eosinophils (PGD2-induced shape change); test: Eosinophil shape change assay with human plasma; format: cell-based; conditions: 50% human plasma, PGD2 100 nM activation, read-out: Antagonistic activity IC50
Procedure: Eosinophil Shape Change Assay with Human Plasma After obtaining informed consent, blood samples were drawn by venipuncture according to the protocol approved by the ethics committee of Basel, Switzerland. Polymorphonuclear leukocytes (containing eosinophils, basophils and neutrophils) were isolated using the Polymorphprep™ method (Axis-Shield). In brief, anticoagulated whole blood was layered onto a Polymorphprep gradient (density 1.113 g/ml) and centrifuged at 500 g for 30 min. The polymorphonuclear cell fraction was harvested and depleted for erythrocytes by hypotonic saline lysis. […]
Immediately after fixation with paraformaldehyde, the samples were analyzed by FACSCanto flow cytometer (BD Biosciences) and target cells were identified by their forward-scatter (FSC) and side-scatter (SSC) characteristics. […] Shape change responses, indicative of eosinophil activation, were quantified as the percent of cells with an increased forward-scatter.

## CN(c1ncc(Cl)cn1)[C@H]1CCc2c(c3nc(F)ccc3n2CC(=O)O)C1 [COMPOUND in crystalline form 1, (S)-2-(8-((5-chloropyrimidin-2-yl)(methyl)amino)-2-fluoro-6,7,8,9-tetrahydro-5H-pyrido[3,2-b]indol-5-yl)acetic acid]
[1]
  Hygroscopicity: Slightly hygroscopic (mass change larger

## CN(c1ncc(Cl)cn1)[C@H]1CCc2c(c3cc(F)ccc3n2CC(=O)O)C1 [example 9 from WO 2011/117798, reference compound]
[2]
  NoEC (no effect concentration): 30 µM
  LCC (lowest cytotoxic concentration): 300 µM

## CN(c1ncc(Cl)cn1)[C@H]1CCc2c(c3nc(F)ccc3n2CC(=O)O)C1 [COMPOUND, (S)-2-(8-((5-chloropyrimidin-2-yl)(methyl)amino)-2-fluoro-6,7,8,9-tetrahydro-5H-pyrido[3,2-b]indol-5-yl)acetic acid]
[3]
  IC50: 3.1 nM
[2]
  NoEC (no effect concentration): >300 µM
  LCC (lowest cytotoxic concentration): >300 µM
[2]; summary statement
  properties in in-vitro cytotoxicity assay (in words): significantly improved properties
